Measurements: patent US8841321B2, “Quinoline derivatives as antibacterial agents” (Janssen Pharmaceutica NV, priority 2005, dated 2014)
Converted amounts (≈) assume the structure as drawn.

What was measured:
Test in all cases: Microtitre plate assay, IC90 determination
Format in all cases: cell-based
[1] = test system: STA RMETH (methicilline resistant Staphylococcus aureus (MRSA), a clinical isolate from the University of Antwerp); conditions: for IC90: Staphylococcus aureus, MRSA, read-out: IC90 (μg/ml) STA RMETH
[2] = test system: SPY 8668 (Streptococcus pyogens (ATCC8668)); conditions: for IC90 (μg/ml) SPY 8668: Streptococcus pyogens (ATCC8668)
[3] = test system: SPN 6305 (Streptococcus pneumoniae (ATCC6305)); conditions: Streptococcus pneumoniae (ATCC6305)
Summary of the method: (§1)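 Growth-inhibition endpoint: resazurin added 3 h after inoculation, plates incubated overnight, fluorescence at 530/590 nm after 24 h at 37 °C. Inocula of roughly 10–60 CFU per well in Mueller-Hinton medium; compounds titrated five-fold. IC90 reported as μg/ml.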

[4] = test system: STA 29213 (Staphylococcus aureus (ATCC29213)); conditions: for IC90 (μg/ml) STA 29213: Staphylococcus aureus (ATCC29213); for IC90: Staphylococcus aureus, ATCC29213, Staphylococcus aureus (ATCC29213), read-out: IC90 (μg/ml) STA 29213
Summary of the method: as §1

[5] = test system: EFA 29212 (Enterococcus faecalis (ATCC29212)); conditions: for IC90 (μg/ml) EFA 29212: Enterococcus faecalis (ATCC29212)
[6] = test system: PAE 27853 (Pseudomonas aeruginosa (ATCC27853)); conditions: for IC90 (μg/ml) PAE 27853: Pseudomonas aeruginosa (ATCC27853)

Row | Compound | IC90 (μg/ml) STA RMETH [1] [µg/mL] | IC90 (μg/ml) SPY 8668 [2] [µg/mL] | IC90 (μg/ml) SPN 6305 [3] [µg/mL] | IC90 (μg/ml) STA 29213 [4] [µg/mL] | IC90 (μg/ml) EFA 29212 [5] [µg/mL] | IC90 (μg/ml) PAE 27853 [6] [µg/mL] | IC90 [1] [µg/mL] | IC90 [4] [µg/mL] | IC90 ([2]; Streptococcus, ATCC8668, Streptococcus pyogens (ATCC8668), read-out: IC90 (μg/ml) SPY 8668) [µg/mL] | IC90 ([5]; Enterococcus faecalis, ATCC29212, Enterococcus faecalis (ATCC29212), read-out: IC90 (μg/ml) EFA 29212) [µg/mL] | IC90 ([6]; Pseudomonas aeruginosa, ATCC27853, Pseudomonas aeruginosa (ATCC27853), read-out: IC90 (μg/ml) PAE 27853) [µg/mL]
1 | COc1nc2ccc(Br)cc2cc1C(c1ccccc1)C(O)(CCCCN1CCN(C)CC1)CCc1ccc(C)cc1 (single isomer, unassigned) [Compound 141] | 14.12 (≈ 22.4 µM) | 4.46 (≈ 7.07 µM) | 1.99 (≈ 3.16 µM) | 1.99 (≈ 3.16 µM) | 4.46 (≈ 7.07 µM) | 4.46 (≈ 7.07 µM) | – | – | – | – | –
2 | COc1nc2ccc(Br)cc2cc1C(c1ccccc1)C(O)(CCCCN1CCN(C)CC1)CCc1ccccc1 (single isomer, unassigned) [Compound 137] | 12.3 (≈ 19.9 µM) | 1.95 (≈ 3.16 µM) | 1.95 (≈ 3.16 µM) | 1.95 (≈ 3.16 µM) | 9.77 (≈ 15.8 µM) | 9.77 (≈ 15.8 µM) | – | – | – | – | –
3 | COc1nc2cc(Br)ccc2cc1C(c1ccccc1)C(O)(CCCCN(C)C)c1ccc2ccccc2c1 (stereo not drawn) [Compound 33] | 5.8 (≈ 9.94 µM) | 46.3 (≈ 79.3 µM) | 9.3 (≈ 15.9 µM) | 4.1 (≈ 7.03 µM) | 46.3 (≈ 79.3 µM) | 52.0 (≈ 89.1 µM) | – | – | – | – | –
4 | CNCCCCC(O)(CCc1ccccc1)C(c1ccccc1)c1cc2cc(Br)ccc2nc1OC (stereo not drawn) [Compound 71] | 10.92 (≈ 19.9 µM) | 3.88 (≈ 7.09 µM) | 1.73 (≈ 3.16 µM) | 1.73 (≈ 3.16 µM) | 8.68 (≈ 15.9 µM) | 8.68 (≈ 15.9 µM) | – | – | – | – | –
5 | COc1nc2ccc(Br)cc2cc1C(c1ccccc1)C(O)(CCCCN(C)C)c1ccc2cc(Br)ccc2c1 (stereo not drawn) [Compound 8] | 2.6 (≈ 3.92 µM) | 10.5 (≈ 15.8 µM) | 10.5 (≈ 15.8 µM) | 2.4 (≈ 3.62 µM) | 2.1 (≈ 3.17 µM) | 5.3 (≈ 8 µM) | – | – | – | – | –
6 | CNCCCCC(O)(CCc1ccccc1)C(c1ccccc1)c1cc2cc(Br)ccc2nc1OC (stereo not drawn) [Compound 70] | – | 1.73 (≈ 3.16 µM) | 0.35 (≈ 0.639 µM) | – | 2.18 (≈ 3.98 µM) | 1.73 (≈ 3.16 µM) | 10.9 (≈ 19.9 µM) | 1.73 (≈ 3.16 µM) | – | – | –
7 | COc1nc2cccc(Br)c2cc1C(c1ccccc1)C(O)(CCCCN(C)C)c1ccc2ccccc2c1 (stereo not drawn) [Compound 29] | 2.3 (≈ 3.94 µM) | – | 9.3 (≈ 15.9 µM) | – | – | – | – | 1.9 (≈ 3.26 µM) | 20.7 (≈ 35.5 µM) | 46.3 (≈ 79.3 µM) | 20.7 (≈ 35.5 µM)
8 | COc1nc2ccc(Br)cc2cc1C(c1ccccc1)C(O)(CCCCN1CCN(C)CC1)CCc1ccccc1 (single isomer, unassigned) [Compound 138] | 12.3 (≈ 19.9 µM) | 0.87 (≈ 1.41 µM) | 2.19 (≈ 3.55 µM) | 2.45 (≈ 3.97 µM) | 1.74 (≈ 2.82 µM) | 2.19 (≈ 3.55 µM) | – | – | – | – | –
9 | COc1nc2ccc(-c3ccccc3)cc2cc1C(c1ccccc1)C(O)(CCCCN(C)C)c1ccc2ccccc2c1 (stereo not drawn) [Compound 40] | – | 1.8 (≈ 3.1 µM) | 1.8 (≈ 3.1 µM) | – | 1.8 (≈ 3.1 µM) | 1.8 (≈ 3.1 µM) | 5.2 (≈ 8.95 µM) | 7.3 (≈ 12.6 µM) | – | – | –
